Patent USRE37781E1, “Substituted cyclic carbonyls and derivatives thereof useful as retroviral protease inhibitors” (DuPont Pharmaceuticals Company, priority 1991, dated 2002)
In brackets after ≈: the same amount, converted by molar mass. Read-outs that look alike come from different tables or passages of the source.

Key:
[1] = tested on: HIV-1 (RF) in MT-2 cells; test: microbe, parasite or virus in culture; type: cell-based
How it was run: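 Read-out: gag and pol viral RNA captured by 5′-biotinylated oligonucleotides on streptavidin-coated wells, detected with alkaline phosphatase-linked reporter oligonucleotides, calibrated against BH10 in vitro transcripts. Virus stocks (RF, MN, IIIB) come from H9 cultures; MT-2 host cells kept in RPMI 1640, 5% FCS.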

[2] = target: T1, HIV protease (Human immunodeficiency virus type 1 group M subtype B, UniProt P04585); test: biochemical; design: species or system HIV-1
T1 construct: plasmid containing HIV protease under the control of an inducible T7 promoter; made in house; host or cells: E. coli (inclusion bodies, T7 promoter)
Procedure: HIV Protease Inhibition Assay—Spectroscopic Method
Inclusion bodies were solubilized in 8M urea, 50 mM tris pH 8.0. Protease activity was recovered by dilution 20-fold into buffer containing 50 mM sodium acetate pH 5.5, 1 mM EDTA, 10% glycerol and 5% ethylene glycol. Enzyme was used at a final concentration of 1.0-10 ug/ml.
Stock solutions of 10 mM were prepared in DMSO.
All further dilutions were done in DMSO.

[3] = Human immunodeficiency virus 1, MT2, Table 1e, read-out: IC90
[4] = Human immunodeficiency virus 1, MT2, 24 h, Table 1d, upper part, read-out: IC90
[5] = Table 1d, upper part, read-out: Ki

| Compound | Ki ([2]; Ki) | IC90 [1, 4] | Ki [2, 5] | other results |
| --- | --- | --- | --- | --- |
| CC(=O)c1cccc(CN2C(=O)N(Cc3cccc(C(C)=O)c3)[C@H](Cc3ccccc3)[C@H](O)[C@H]2CCc2ccccc2)c1 [Example 8P] | < 10 nM |  |  | IC90 [1, 3]: < 10 µg/mL |
| CS(=O)(=O)OC1C(O)C(Cc2ccccc2)N(Cc2ccc3ccccc3c2)C(=O)N(Cc2ccc3ccccc3c2)C1Cc1ccccc1 (stereo not shown) [Example 7o] |  | < 10 µg/mL | 10 to 1000 nM |  |
| O=C1OC2C(O1)C(Cc1ccccc1)N(Cc1ccc3ccccc3c1)C(=O)N(Cc1ccc3ccccc3c1)C2Cc1ccccc1 (stereo not shown) [Example 7L] | 10 to 1000 nM | > 100 µg/mL |  |  |
| C=C(C)CN1C(=O)N(CC(=C)C)C(Cc2ccccc2)C(O)C(O)C1Cc1ccccc1 (stereo not shown) [Example 1AJ] |  |  |  | Ki ([2]; Table 1a, read-out: Ki): < 10 nM; melting point: 205 to 207 °C |
| O=C1N(CC2CC2)C(Cc2ccccc2)C2OS(=O)OC2C(Cc2ccccc2)N1CC1CC1 (stereo not shown) [Example 7F] |  | < 10 µg/mL | < 10 nM |  |
| O=C1N(CC2CC2)[C@H](Cc2ccccc2)C[C@@H](O)[C@@H](Cc2ccccc2)N1CC1CC1 [Example 7U] |  | < 10 µg/mL | < 10 nM |  |
| CC(C)CCCN1C(=O)N(CCCC(C)C)C(Cc2ccccc2)C(O)C(O)C1Cc1ccccc1 (stereo not shown) [Example 1AM] | < 10 nM |  |  | melting point: 120 to 122 °C |
| O=C1N(CC2CC2)C(C(F)Cc2ccccc2)[C@@H](O)[C@@H](Cc2ccccc2)N1CC1CC1 (stereo partly shown) [Example 8B] |  |  |  | IC90 [1, 3]: < 10 µg/mL; Ki ([2]; Table 1e, read-out: Ki): 10 to 1000 nM |
| N#Cc1cccc(CN2C(=O)N(Cc3cccc(C#N)c3)[C@H](Cc3ccccc3)[C@H](O)C2CCc2ccccc2)c1 (stereo partly shown) [Example 8AN] | > 1000 nM |  |  | IC90 ([1]; Table 1e): + (+=>100 μg/mL) |
| C=CCN1C(=O)N(CCCC)C(Cc2ccccc2)C2OS(=O)OC2C1Cc1ccccc1 (stereo not shown) [Example 7D] |  | 10 to 100 µg/mL (≈ 21.3 to 213 µM) | < 10 nM |  |
| O=C1N(Cc2cccc(CO)c2)C(Cc2ccccc2)C(O)C(C(Br)Cc2ccccc2)N1Cc1cccc(CO)c1 (stereo not shown) [Example 8V] |  |  |  | IC90 [1, 3]: < 10 µg/mL; Ki ([2]; Table 1e, read-out: Ki): 10 to 1000 nM |
| CN1C(=O)N(C)C(Cc2ccccc2)C(O)C(O)C1Cc1ccccc1 (stereo not shown) [Example 1W] | > 1000 nM |  |  | melting point: 170 to 174 °C |
| O=C1N(CC2CC2)C(Cc2ccccc2)C2OC(=S)OC2C(Cc2ccccc2)N1CC1CC1 (stereo not shown) [Example 7I] |  | < 10 µg/mL | 10 to 1000 nM |  |
| CC(C)CCCCCN1C(=O)N(CCCCCC(C)C)C(Cc2ccccc2)C(O)C(O)C1Cc1ccccc1 (stereo not shown) [Example 1AL] | 10 to 1000 nM |  |  | melting point: 144 to 145 °C |
| O=C1N(Cc2ccc(F)cc2)C(Cc2ccccc2)C(O)C(O)C(Cc2ccccc2)N1Cc1ccc(F)cc1 (stereo not shown) [Example 2E] |  |  |  | IC90 ([1]; Human immunodeficiency virus 1, MT2, Table 2A, read-out: IC90): < 10 µg/mL; IC90 ([1]; Human immunodeficiency virus 1, MT2, second table headed Table 2A, read-out: IC90): < 10 µg/mL; Ki ([2]; Table 2A, read-out: Ki): < 10 nM; Ki ([2]; second table headed Table 2A, read-out: Ki): < 10 nM |
| O=C1N(Cc2cccc(-c3noc(C(F)(F)F)n3)c2)[C@H](CCc2ccccc2)[C@@H](O)[C@@H](Cc2ccccc2)N1Cc1cccc(-c2noc(C(F)(F)F)n2)c1 [Example 8X] |  |  |  | IC90 [1, 3]: 10 to 100 µg/mL (≈ 13.1 to 131 µM); Ki ([2]; Table 1e, read-out: Ki): 10 to 1000 nM |
| O=C1N(Cc2ccc3ccccc3c2)C(Cc2ccccc2)C2OC(=S)OC2C(Cc2ccccc2)N1Cc1ccc2ccccc2c1 (stereo not shown) [Example 7N] |  | > 100 µg/mL | > 1000 nM |  |
| CCCCCCN1C(=O)N(CCCCCC)C(Cc2ccccc2)C(O)C(O)C1Cc1ccccc1 (stereo not shown) [Example 1Y] | < 10 nM |  |  | melting point: 110 to 112 °C |
| O=C1N(Cc2ccc3ccccc3c2)C(Cc2ccccc2)C2OS(=O)OC2C(Cc2ccccc2)N1Cc1ccc2ccccc2c1 (stereo not shown) [Example 7M] |  | < 10 µg/mL | < 10 nM |  |
| C=CCN1C(=O)N(CCCC)C(Cc2ccccc2)C2OC(=O)OC2C1Cc1ccccc1 (stereo not shown) [Example 7E] | 10 to 1000 nM | < 10 µg/mL |  |  |
| C=CCN1C(=O)N(CC=C)[C@H](Cc2ccccc2)[C@H](O)C1C(F)Cc1ccccc1 (stereo partly shown) [Example 7W] |  |  |  | IC90 [1, 3]: 10 to 100 µg/mL (≈ 24.5 to 245 µM); Ki ([2]; Table 1e, read-out: Ki): 10 to 1000 nM |
| O=C1N(Cc2ccc(CO)cc2)[C@H](CCc2ccccc2)C[C@@H](Cc2ccccc2)N1Cc1ccc(CO)cc1 [Example 8AC] |  |  |  | IC90 [1, 3]: < 10 µg/mL; Ki ([2]; Table 1e, read-out: Ki): 10 to 1000 nM |
| O=C1N(Cc2ccccc2)C(CCc2ccccc2)[C@@H](O)[C@@H](Cc2ccccc2)N1Cc1ccccc1 (stereo partly shown) [Example 8AD] |  |  |  | IC90 [1, 3]: < 10 µg/mL; Ki ([2]; Table 1e, read-out: Ki): 10 to 1000 nM |
| O=C1N(Cc2cccc(OCc3ccccc3)c2)C(Cc2ccccc2)C(O)C2C(Cc3ccccc3)N12 (stereo not shown) [Example 21E] |  |  |  | IC90 ([1]; Table 2j): ++/+ (The ++/+ is used in the cases where an IC90 was determined to be >50 μg/mL); Ki ([2]; Table 2j, read-out: Ki): > 1000 nM |
| CC1(C)OC2C(O1)C(Cc1ccccc1)N(Cc1ccc3ccccc3c1)C(=O)N(Cc1ccc3ccccc3c1)C2Cc1ccccc1 (stereo not shown) [Example 7R] |  | > 100 µg/mL | > 1000 nM |  |
